The text below walks through data of paper PMC4106271 (Journal of Medicinal Chemistry, 2014).

Experiment [1] deals with T1, α1β2γ2S GABAA receptors (Homo sapiens, UniProt P14867+P47870).
T1 construct: expressed in transfected cells; host or cells: Xenopus laevis oocytes injected with cRNA (pCMV cDNA templates)
The settings on record: cited from earlier work.

Experiment [2] addresses T1, α1β2γ2S GABAA receptors. Description: Two-microelectrode voltage clamp, IGABA modulation, α1β2γ2S. Type of experiment: cell-based. The settings on record: 100 μM compound, GABA EC3–7, Xenopus laevis oocytes, mean ± SEM. As for the experimental part: Preparation of stage V–VI oocytes from X. laevis and synthesis of capped runoff poly(A) cRNA transcripts from linearized cDNA templates (pCMV vector) was performed as previously described.[49] […] Follicle membranes from isolated oocytes were enzymatically digested with 2 mg/mL collagenase (type 1A, Sigma–Aldrich, Vienna, Austria).
Selected oocytes were injected with 10–50 nL of DEPC-treated water (diethyl pyrocarbonate, Sigma, Vienna, Austria) containing the different GABAA cRNAs at a concentration of approximately 300–3000 pg·nL^–1·subunit^–1.
To ensure expression of the γ2S subunit in the case of α1/2/3/5β2/3γ2S receptors, cRNAs were mixed in a ratio of 1:1:10. […] The amount of cRNAs was determined by means of a NanoDrop ND-1000 (Kisker-Biotech, Steinfurt, Germany).
Oocytes were stored at +18 °C in modified ND96 solution (90 mM NaCl, 1 mM CaCl2, 1 mM KCl, 1 mM MgCl2·6H2O, and 5 mM HEPES [4-(2-hydroxyethyl)-1-piperazineethanesulfonic acid], pH 7.4, all from Sigma–Aldrich, Vienna, Austria).
Chloride currents through GABAA receptors (IGABA) were measured at room temperature (+21 ± 1 °C) by means of a two-microelectrode voltage clamp technique making use of a Turbo TEC-05X amplifier (npi electronic, Tamm, Germany). IGABA were elicited at a holding potential of –70 mV. Data acquisition was carried out by means of an Axon Digidata 1322A interface using pCLAMP v.10 (Molecular Devices, Sunnyvale, CA). The modified ND96 solution was used as bath solution.
GABA and the studied derivatives were applied by means of the ScreeningTool (npi electronic, Tamm, Germany) fast perfusion system as described previously.[50] To elicit IGABA, the chamber was perfused with 120 μL of GABA- or compound-containing solution at a volume rate of 300 μL/s.[34] Care was taken to account for possible slow recovery from increasing levels of desensitization in the presence of high drug concentrations. The duration of washout periods was therefore extended from 1.5 min (<10 μM compounds) to 30 min (≥10 μM compounds). Oocytes with maximal current amplitudes >3 μA were discarded to exclude voltage clamp errors.
Stimulation of chloride currents by modulators of the GABAA receptor was measured at a GABA concentration eliciting between 3% and 7% of the maximal current amplitude (EC3–7). The GABA EC3–7 was determined for each oocyte individually. Enhancement of the chloride current was defined as (IGABA+compd/IGABA) – 1, where IGABA+compd is the current response in the presence of a given compound and IGABA is the control GABA current. IGABA-max reflects the maximal IGABA enhancement. Concentration–response curves were generated and the data were fitted by nonlinear regression analysis using Origin Software (OriginLab Corp.). Data were fitted to the equation 1/(1 + (EC50/[compound])^nH), where nH is the Hill coefficient. […] Statistical significance was calculated by paired Student t-test with a confidence interval of <0.05.

T1 sequence (P14867 28-456): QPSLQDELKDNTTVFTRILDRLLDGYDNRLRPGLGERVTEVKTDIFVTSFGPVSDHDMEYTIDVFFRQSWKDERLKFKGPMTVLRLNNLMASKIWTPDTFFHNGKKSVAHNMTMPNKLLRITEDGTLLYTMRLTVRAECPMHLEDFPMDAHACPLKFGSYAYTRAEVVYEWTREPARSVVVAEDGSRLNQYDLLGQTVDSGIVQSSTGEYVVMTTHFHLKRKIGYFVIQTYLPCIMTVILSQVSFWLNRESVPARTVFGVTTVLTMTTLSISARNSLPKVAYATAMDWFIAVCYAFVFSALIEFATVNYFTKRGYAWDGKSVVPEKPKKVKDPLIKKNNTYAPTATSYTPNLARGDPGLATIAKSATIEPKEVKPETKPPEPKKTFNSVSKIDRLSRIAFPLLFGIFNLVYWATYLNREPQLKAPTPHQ
T1 sequence (P47870 26-512): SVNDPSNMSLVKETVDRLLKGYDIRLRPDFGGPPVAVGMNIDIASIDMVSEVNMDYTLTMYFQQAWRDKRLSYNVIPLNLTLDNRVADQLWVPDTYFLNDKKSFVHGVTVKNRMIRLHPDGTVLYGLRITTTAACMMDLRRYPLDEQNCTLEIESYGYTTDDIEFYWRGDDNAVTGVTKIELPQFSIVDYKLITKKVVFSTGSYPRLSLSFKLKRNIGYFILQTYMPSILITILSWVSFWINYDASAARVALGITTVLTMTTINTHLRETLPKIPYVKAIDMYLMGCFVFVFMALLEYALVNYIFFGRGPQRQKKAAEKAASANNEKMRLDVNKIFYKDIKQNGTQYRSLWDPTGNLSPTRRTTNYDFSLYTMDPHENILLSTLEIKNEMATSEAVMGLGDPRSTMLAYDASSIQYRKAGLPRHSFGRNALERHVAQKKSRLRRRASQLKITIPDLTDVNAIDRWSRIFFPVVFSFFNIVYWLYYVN
T1 sequence (P18507 40-467 isoform P18507-1 partner limits assumed): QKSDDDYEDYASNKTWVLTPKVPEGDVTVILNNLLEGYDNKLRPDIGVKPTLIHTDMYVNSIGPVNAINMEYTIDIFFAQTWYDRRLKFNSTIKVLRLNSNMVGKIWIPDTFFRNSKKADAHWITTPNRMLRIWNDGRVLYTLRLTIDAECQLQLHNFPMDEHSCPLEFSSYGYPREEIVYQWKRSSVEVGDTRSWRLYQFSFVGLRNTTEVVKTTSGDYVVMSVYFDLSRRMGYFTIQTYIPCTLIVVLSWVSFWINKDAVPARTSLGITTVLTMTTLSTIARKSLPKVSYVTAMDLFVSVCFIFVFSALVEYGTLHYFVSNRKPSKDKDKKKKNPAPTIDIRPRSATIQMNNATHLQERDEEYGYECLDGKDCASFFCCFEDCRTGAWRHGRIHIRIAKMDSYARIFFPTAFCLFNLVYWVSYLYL

Take `O=C(/C=C/C=C/c1ccc2c(c1)OCO2)N1CCCCC1` [piperine, 1-piperoylpiperidine]: the “potentiation of IGABA” value on α1β2γ2S GABAA receptors [1] (100 μM) is 226% ± 26%. At α1β2γ2S GABAA receptors [1] (Hill coefficient), the nH is 1.5 ± 0.2.
As for `CCCN(CCC)C(=O)c1cccc(-c2ccc3c(c2)OCO3)c1` [Compound 51, 3-(Benzo[d][1,3]dioxol-5-yl)-N,N-dipropylbenzamide], on α1β2γ2S GABAA receptors [2], the activation at 100 µM was found to be 280% and the “modulation of IGABA (%)” value is recorded as 280 ± 52 %.
At α1β2γ2S GABAA receptors [2], `CCCN(CCC)C(=O)/C=C/c1cccc2cc3c(cc12)OCO3` [Compound 66] gave an activation at 100 µM of 67 ± 23%.
